From patent publication US12077503B2, “Substituted cyclic amides and their use as herbicides” (FMC CORPORATION, priority 2015, dated 2024) come the findings set out here.

What all share (type): in vivo
In test [1] the test system is barnyardgrass (Echinochloa crus-galli). The experiment in a line: Test A preemergence. To be noted: Echinochloa crus-galli, pre-emergence, 240 h. In a few lines:
(§1)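 Visual injury, scored on a 0–100 scale relative to untreated controls, was recorded about 10 d after application. Treatments were a preemergence soil spray over planted seeds or a postemergence spray on plants at the one- to two-leaf stage, 2 to 10 cm tall, all in loam soil–sand blend in the greenhouse.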

Test [2] deals with ryegrass, Italian (Italian ryegrass, Lolium multiflorum). The experiment in a line: Test A preemergence. To be noted: Lolium multiflorum, pre-emergence, 240 h. The procedure, abridged:
as §1

The subject of test [3] is pigweed (Amaranthus retroflexus). As to the kind of experiment: Test A preemergence. To be noted: Amaranthus retroflexus, pre-emergence, 240 h.
Test [4] has as its system giant foxtail (Setaria faberii). As to the kind of experiment: Test A preemergence. To be noted: Setaria faberi, pre-emergence, 240 h. In a few lines: as §1
In test [5] the test system is ragweed (common ragweed, Ambrosia elatior). The experiment in a line: Test A preemergence. To be noted: Ambrosia artemisiifolia, pre-emergence, 240 h. The procedure, abridged: as §1
For the next test, the system named is Kochia (Kochia scoparia). The experiment in a line: Test A preemergence. To be noted: Bassia scoparia, pre-emergence, 240 h. The procedure, abridged:
as §1

Test [6] has as its system barnyardgrass (Echinochloa crus-galli). As to the kind of experiment: Test A postemergence. To be noted: Echinochloa crus-galli, post-emergence, 240 h, 125 g ai/ha, Postemergence; visual injury after approximately 10 d; 0 to 100 scale where 0 is no effect and 100 is complete control; read-out: Plant response rating, Barnyardgrass. The procedure, abridged:
as §1

The test system of the next test is corn (Zea mays). The experiment in a line: Test A postemergence. To be noted: Zea mays, post-emergence, 240 h, 125 g ai/ha, Postemergence; visual injury after approximately 10 d; 0 to 100 scale where 0 is no effect and 100 is complete control. The procedure, abridged:
as §1

The subject of test [7] is blackgrass (Alopecurus myosuroides). As to the kind of experiment: Test A postemergence. To be noted: Alopecurus myosuroides, post-emergence, 240 h, 125 g ai/ha, Postemergence; visual injury after approximately 10 d; 0 to 100 scale where 0 is no effect and 100 is complete control; read-out: Plant response rating, Blackgrass. The procedure, abridged:
as §1

For test [8], the system named is wheat (Triticum aestivum). The experiment in a line: Test A postemergence. To be noted: Triticum aestivum, post-emergence, 240 h, 125 g ai/ha, Postemergence; visual injury after approximately 10 d; 0 to 100 scale where 0 is no effect and 100 is complete control; read-out: Plant response rating, Wheat. In a few lines:
as §1

Test [9] concerns ryegrass, Italian (Italian ryegrass, Lolium multiflorum). The experiment in a line: Test A postemergence. To be noted: Lolium multiflorum, post-emergence, 240 h, 125 g ai/ha, Postemergence; visual injury after approximately 10 d; 0 to 100 scale where 0 is no effect and 100 is complete control; read-out: Plant response rating, Ryegrass, Italian. In a few lines:
as §1

For test [10], the system named is pigweed (Amaranthus retroflexus). The experiment in a line: Test A postemergence. To be noted: Amaranthus retroflexus, post-emergence, 240 h, 125 g ai/ha, Postemergence; visual injury after approximately 10 d; 0 to 100 scale where 0 is no effect and 100 is complete control; read-out: Plant response rating, Pigweed. The procedure, abridged: as §1
In test [11] the test system is giant foxtail (Setaria faberii). As to the kind of experiment: Test A postemergence. To be noted: Setaria faberi, post-emergence, 240 h, 125 g ai/ha, Postemergence; visual injury after approximately 10 d; 0 to 100 scale where 0 is no effect and 100 is complete control; read-out: Plant response rating, Foxtail, Giant. In a few lines:
as §1

Test [12] deals with Galium (catchweed bedstraw, Galium aparine). As to the kind of experiment: Test A postemergence. To be noted: Galium, post-emergence, 240 h, 125 g ai/ha, Postemergence; visual injury after approximately 10 d; 0 to 100 scale where 0 is no effect and 100 is complete control; read-out: Plant response rating, Galium. In a few lines: as §1
Test [13] relates to ragweed (common ragweed, Ambrosia elatior). As to the kind of experiment: Test A postemergence. To be noted: Ambrosia artemisiifolia, post-emergence, 240 h, 125 g ai/ha, Postemergence; visual injury after approximately 10 d; 0 to 100 scale where 0 is no effect and 100 is complete control; read-out: Plant response rating, Ragweed. In a few lines:
as §1

For `CN1C[C@H](c2ccc(C(F)(F)F)cc2)[C@@H](C(=O)Nc2ccccc2[S+](C)[O-])C1=O` (stereo partly drawn) [Compound 915], the pest or weed control at 125 g/ha is 100% in test [1] (125 g ai/ha, preemergence, 0 to 100 scale where 0 is no effect and 100 is complete control, read-out: Barnyardgrass plant response rating); 40% in test [2] (125 g ai/ha, preemergence, 0 to 100 scale where 0 is no effect and 100 is complete control, read-out: Ryegrass, Italian plant response rating); 80% in test [3] (125 g ai/ha, preemergence, 0 to 100 scale where 0 is no effect and 100 is complete control, read-out: Pigweed plant response rating); 90% in test [4] (125 g ai/ha, preemergence, 0 to 100 scale where 0 is no effect and 100 is complete control, read-out: Foxtail, Giant plant response rating); 80% in test [5] (125 g ai/ha, preemergence, 0 to 100 scale where 0 is no effect and 100 is complete control, read-out: Ragweed plant response rating); 80% in the test with Kochia (Kochia scoparia) (125 g ai/ha, preemergence, 0 to 100 scale where 0 is no effect and 100 is complete control, read-out: Kochia plant response rating). In addition, the pest or weed control at 125 g/ha in test [6] turned out to be 90%; in [7] it was 40%; in test [9] it was 30%; in test [10] it was 60%; in [11], 90%; in test [12] it was 50%. For the same molecule, in [13], the pest or weed control at 125 g/ha was 30%. Moreover, the pest or weed control at 500 g/ha in [1] (500 g ai/ha, Preemergence, visual injury vs untreated controls after approximately 10 d, read-out: Barnyardgrass plant response rating (0 to 100 scale where 0 is no effect and 100 is complete control)) was 100%; in test [2] (500 g ai/ha, Preemergence, visual injury vs untreated controls after approximately 10 d, read-out: Ryegrass, Italian plant response rating (0 to 100 scale where 0 is no effect and 100 is complete control)), 70%; in [3] (500 g ai/ha, Preemergence, visual injury vs untreated controls after approximately 10 d, read-out: Pigweed plant response rating (0 to 100 scale where 0 is no effect and 100 is complete control)) it was 90%; in test [4] (500 g ai/ha, Preemergence, visual injury vs untreated controls after approximately 10 d, read-out: Foxtail, Giant plant response rating (0 to 100 scale where 0 is no effect and 100 is complete control)) it was 100%; in test [5] (500 g ai/ha, Preemergence, visual injury vs untreated controls after approximately 10 d, read-out: Ragweed plant response rating (0 to 100 scale where 0 is no effect and 100 is complete control)), 90%; in the test with Kochia (Kochia scoparia) (500 g ai/ha, Preemergence, visual injury vs untreated controls after approximately 10 d, read-out: Kochia plant response rating (0 to 100 scale where 0 is no effect and 100 is complete control)) it was 90%. In the test on corn (Zea mays), this molecule returned a Corn plant response rating (crop injury, 0 = no effect, 100 = complete kill) at 125 g/ha of 0%. In addition, the plant injury at 125 g/ha in test [8] amounted to 40%.
